Our source for the Emax and EC50 values is patent publication US9983218B2, “Indole and indoline derivatives and methods of use thereof” (AbbVie Inc., priority 2008, dated 2018).

Where two headings read alike, the source gives them in different places.

For this assay, the system named is SK-N-SH human neuroblastoma cells. Description: Serum deprivation/JC-1 mitochondrial membrane potential (MMP) assay. Type of assay: cell-based. Particulars: Homo sapiens; for Emax: read-out: JC-1 max %. Here is the method:
SK-N-SH human neuroblastoma cells obtained from American Type Culture Collection (Rockville, Md.) were maintained in the log phase of growth in Minimal Essential Media (MEM), 10% heat inactivated fetal calf serum and 100 units/mL antibiotic-antimycotic (AA). Cells were cultured and maintained in a humidified incubator at 37° C. under 5% CO2 and 95% air. Cells were trypsinized (0.25%) and subcultured every 3 days and used from 15-18 passages. All cell culture supplies were obtained from Invitrogen (Carlsbad, Calif.).
SK-N-SH cells were plated 2-3 days in advance at a concentration of 50,000 cells/well onto collagen coated black-walled 96 well plates (Becton-Dickinson, Bedford, Mass.) in a total volume of 200 μL. On day of experimental treatment, the media containing serum was aspirated from each well and rinsed once with MEM/1% AA without serum. The cells then were incubated overnight in 100 μL of MEM/1% AA (no serum) with and without dimebolin or novel chemical entities overnight for ˜18 hours. The following day, JC-1 dye (5,5′,6,6′-tetrachloro-1,1′,3,3′-tetraethylbenzimidazolcarbocyanide) was diluted 1:10 into MEM media according to the JC-1 Mitochondrial Membrane Potential Assay Kit: (Cayman Chemical Company, Ann Arbor, Mich.) and then 10 μL of the JC-1 dye solution was added to each well. The plates were centrifuged for 5 minutes at 400×g at room temperature followed by 35 minute incubation at 37° C. The plates were washed twice with 200[…] μL of provided Assay Buffer followed an addition of 100 μL of Assay Buffer to each well. The plates were read with an excitation and emission of 560 nm and 595 nM for red fluorescence and with an excitation and emission of 485 nm and 535 nM for green fluorescence to determine the final JC-1 value taking the red to green fluorescence ratio. This assay is based on change in mitochondrial membrane potential (MMP) using this lipophilic cationic dye, JC-1, by monitoring the changes in the ratio of red to green fluorescence as the MMP depolarizes. This change in MMP reflects the health of the cell with healthy, viable cells have a high JC-1 ratio and high MMP whereas apoptotic, unhealthy cells have a low JC-1 ratio or low MMP.
For the ability of compounds to reverse the stress due to serum deprivation and increase the JC-1 ratio, the percent maximal intensity in JC-1 ratio was normalized to that induced by the peak value for 10 μM dimebolin and plotted against the compound concentration to calculate EC50 values and to control for plate-to-plate variability. Concentration-response data were analyzed using GraphPad Prism (San Diego, Calif.); the EC50 values were derived from a single curve fit to the mean data of n=2-3, in duplicates.
All compounds were dissolved in dimethyl sulfoxide at 10 mM stock solutions and tested at a concentration that the dimethyl sulfoxide levels never exceeded 1%.

[1] abbreviates: SK-N-SH, percent maximal intensity in JC-1 ratio normalized to 10 μM dimebolin.
Setting [2] is: SK-N-SH cells, serum deprivation ~18 hours, JC-1 ratio normalized to peak value for 10 μM dimebolin, single curve fit to mean data of n=2-3, read-out: EC50.

The EC50 is the concentration that produces a half-maximal response. In the case of `Cc1ccc2c(c1)c1c(n2CCc2ccc(C)nc2)C2CCCN(C1)C2` (stereo not drawn) [Example 202, 10-methyl-7-[2-(6-methylpyridin-3-yl)ethyl]-1,3,4,5,6,7-hexahydro-2,6-methanoazocino[4,3-b]indole], the Emax under setting [1] worked out at 239%. Also, the EC50 under setting [2] came out at 3.07 µM.
For `Fc1ccc2c(c1)c1c(n2-c2ccc3ncncc3c2)C2CCN(CC2)C1` [Example 227, 9-fluoro-6-quinazolin-6-yl-3,4,5,6-tetrahydro-1H-2,5-ethanoazepino[4,3-b]indole] the same measures were 266% and 3.62 µM.
As for `Fc1ccc2c(c1)c1c(n2-c2ccc3ccncc3c2)C2CCN(CC2)C1` [Example 223, 9-fluoro-6-isoquinolin-7-yl-3,4,5,6-tetrahydro-1H-2,5-ethanoazepino[4,3-b]indole], under setting [1], the Emax is 287%. Under setting [2], the EC50 was 3.84 µM.
For `Cc1ccc(/C=C/n2c3c(c4cc(C)ccc42)[C@@H]2CC[C@H](C3)N2C)cc1` [Example 59, (7R,10S)-2,11-dimethyl-5-[(E)-2-(4-methylphenyl)vinyl]-5,6,7,8,9,10-hexahydro-7,10-epiminocyclohepta[b]indole] the same measures were 202% and 4.14 µM.
For `c1cc(-n2cccn2)nc(-n2c3c(c4ccccc42)CN2CCC3CC2)c1` [Example 236, 6-[6-(1H-pyrazol-1-yl)pyridin-2-yl]-3,4,5,6-tetrahydro-1H-2,5-ethanoazepino[4,3-b]indole] the same measures were 268% and 1.74 µM.
Take `Cc1ccc2cc(-n3c4c(c5ccccc53)CN3CCC4CC3)ccc2n1` [Example 232, 6-(2-methylquinolin-6-yl)-3,4,5,6-tetrahydro-1H-2,5-ethanoazepino[4,3-b]indole]: the Emax under setting [1] is 220%. Further, the EC50 under setting [2] was found to be 0.81 µM.
Take `O=c1cccnn1-c1ccc(Cn2c3c(c4cc(F)ccc42)CN2CCC3CC2)cc1` [Example 255, 2-{4-[(9-fluoro-1,3,4,5-tetrahydro-6H-2,5-ethanoazepino[4,3-b]indol-6-yl)methyl]phenyl}pyridazin-3(2H)-one]: the Emax under setting [1] was 171%. Also, the EC50 under setting [2] is 5.72 µM.
In the case of `COc1ccc2c(c1)c1c(n2CCc2ccc(C)nc2)CC2CCC1N2C` (stereo not drawn) [Example 91, 2-methoxy-11-methyl-5-[2-(6-methylpyridin-3-yl)ethyl]-5,6,7,8,9,10-hexahydro-7,10-epiminocyclohepta[b]indole], under setting [1], the Emax amounted to 129%. Moreover, the EC50 under setting [2] was determined as 6.33 µM.
As to `CN1C2CCC1c1c(n(CCc3ccc(Cl)cc3)c3ccc(OC(F)(F)F)cc13)C2` (stereo not drawn) [Example 97, 5-[2-(4-chlorophenyl)ethyl]-11-methyl-2-(trifluoromethoxy)-5,6,7,8,9,10-hexahydro-7,10-epiminocyclohepta[b]indole], the EC50 (SK-N-SH, 18 h) came out at 5.13 µM. The Emax (SK-N-SH) was found to be 164%.
In the case of `Cc1ccc(/C=C/n2c3c(c4cc(F)ccc42)CN2CCC3CC2)cn1` [Example 162, 9-fluoro-6-[(E)-2-(6-methylpyridin-3-yl)vinyl]-3,4,5,6-tetrahydro-1H-2,5-ethanoazepino[4,3-b]indole], under setting [1], the Emax is 205%. Under setting [2], the EC50 stood at 17 µM.
For `CCN1C2CCC1c1c(n(CCc3ccc(C)nc3)c3ccc(C)cc13)C2` (stereo not drawn) [Example 12, 11-ethyl-2-methyl-5-[2-(6-methylpyridin-3-yl)ethyl]-5,6,7,8,9,10-hexahydro-7,10-epiminocyclohepta[b]indole] the same measures were 181% and 5.58 µM.
For `Cc1ccc(CCn2c3c(c4cc(OC(F)(F)F)ccc42)C2CCCC(C3)N2)cn1` (stereo not drawn) [Example 140, 5-[2-(6-methylpyridin-3-yl)ethyl]-2-(trifluoromethoxy)-6,7,8,9,10,11-hexahydro-5H-7,11-epiminocycloocta[b]indole], in that order: 194% and 3.32 µM.
Turning to `O=c1ccnc2ccc(-n3c4c(c5ccccc53)[C@H]3CC[C@@H](C4)N3)cn12` (single isomer, unassigned) [Example 283], under setting [1], the Emax is 170%. Also, the concentration for a half-maximal effect (EC50) under setting [2] was 6.02 µM.
For `O=c1cnc2ccc(-n3c4c(c5cc(F)ccc53)CN3CCC4CC3)cc2[nH]1` [Example 260, 7-(9-fluoro-1,3,4,5-tetrahydro-6H-2,5-ethanoazepino[4,3-b]indol-6-yl)quinoxalin-2(1H)-one], the Emax under setting [1] came out at 191%. In addition, the EC50 under setting [2] stood at 2.91 µM.
`Cc1ccc(CCn2c3c(c4cc(C5CC5)ccc42)C2CCC(C3)N2C)cn1` (stereo not drawn) [Example 103, 2-cyclopropyl-11-methyl-5-[2-(6-methylpyridin-3-yl)ethyl]-5,6,7,8,9,10-hexahydro-7,10-epiminocyclohepta[b]indole]: under setting [1], the Emax came out at 180%. The EC50 under setting [2] came out at 4.17 µM.
For `FC12CC3CC(CN(C3)C1)c1c2c2ccccc2n1Cc1ccc(Cl)nc1` (stereo not drawn) [Example 190, 8-[(6-chloropyridin-3-yl)methyl]-1-fluoro-1,4,5,6,7,8-hexahydro-2H-1,5:3,7-dimethanoazonino[5,4-b]indole], in that order: 175% and 5.06 µM.
As for `Fc1ccc(CCn2c3c(c4cc(F)ccc42)CN2CCC3CC2)cc1` [Example 163, 9-fluoro-6-[2-(4-fluorophenyl)ethyl]-3,4,5,6-tetrahydro-1H-2,5-ethanoazepino[4,3-b]indole], the Emax under setting [1] was determined as 140%. For the same compound, the EC50 under setting [2] was 4.03 µM.
For `c1ccc2c(c1)c1c(n2-c2ccc3ncncc3c2)C2CCN(CC2)C1` [Example 269, 6-(quinazolin-6-yl)-3,4,5,6-tetrahydro-1H-2,5-ethanoazepino[4,3-b]indole], in that order: 204% and 0.745 µM.
For `Cc1ccc2c(c1)c1c(n2CCc2ccccc2C)C2CCCN(C1)C2` (stereo not drawn) [Example 203, 10-methyl-7-[2-(2-methylphenyl)ethyl]-1,3,4,5,6,7-hexahydro-2,6-methanoazocino[4,3-b]indole] the same measures were 159% and 4.53 µM.
For `O=c1cccnn1CCn1c2c(c3cc(F)ccc31)CN1CCC2CC1` [Example 238, 2-[2-(9-fluoro-1,3,4,5-tetrahydro-6H-2,5-ethanoazepino[4,3-b]indol-6-yl)ethyl]pyridazin-3(2H)-one], in that order: 86.5% and 11.6 µM.
Take `COCCN(C)c1ccc(Cn2c3c(c4cc(F)ccc42)CN2CCC3CC2)cn1` [Example 245, 5-[(9-fluoro-1,3,4,5-tetrahydro-6H-2,5-ethanoazepino[4,3-b]indol-6-yl)methyl]-N-(2-methoxyethyl)-N-methylpyridin-2-amine]: the Emax under setting [1] is 189%. Moreover, under setting [2], the EC50 amounted to 10 µM.
For `Cc1ccc2c(c1)c1c(n2CCc2ccc(C)nn2)C[C@H]2CC[C@@H]1N2C` [Example 33, (7R,10S)-2,11-dimethyl-5-[2-(6-methylpyridazin-3-yl)ethyl]-5,6,7,8,9,10-hexahydro-7,10-epiminocyclohepta[b]indole] the same measures were 97% and 5.81 µM.
Consider `Cc1ccc2c(c1)[C@@H]1CN3CCC(CC3)[C@@H]1N2CCc1ccc(C)nc1` (single isomer, unassigned) [Example 159], for which the Emax under setting [1] came out at 240%. In addition, the half-maximal effective concentration (EC50) under setting [2] is 2.67 µM.
Consider `Cc1ccc2c(c1)c1c(n2-c2ccc3ccccc3n2)C2CCN(CC2)C1` [Example 222, 9-methyl-6-quinolin-2-yl-3,4,5,6-tetrahydro-1H-2,5-ethanoazepino[4,3-b]indole], for which, under setting [1], the Emax amounted to 215%. Moreover, under setting [2], the EC50 came to 4.43 µM.
For `Cc1ccc2c(c1)c1c(n2CCc2ccc(C)nc2)C[C@@H]2CCC[C@H]1N2` (single isomer, unassigned) [Example 121] the same measures were 129% and 3.63 µM.
For `Cc1ccc2c(c1)c1c(n2CCc2ccc(C)nc2)C[C@H]2CCC[C@@H]1N2` (single isomer, unassigned) [Example 120] the same measures were 197% and 3.4 µM.
For `Cc1ccc2c(c1)c1c(n2-c2ccc3ncccc3c2)C2CCN(CC2)C1` [Example 217, 9-methyl-6-quinolin-6-yl-3,4,5,6-tetrahydro-1H-2,5-ethanoazepino[4,3-b]indole] the same measures were 182% and 2.94 µM.
